Source: ChEMBL document CHEMBL1201862, “PubChem BioAssay data set” (2004)
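How tested: cells in 96-well plates exposed to compound for 48 hours at five concentrations. Here, GI50 denotes the concentration required for 50% inhibition of growth.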 Calls of active or inactive are those of the source. Cut-off read from the data, not from the text of the source: active = GI50 up to about 1.1 µM and inactive = higher.

Key:
Experiment in all cases: growth of human tumour cells (NCI), 48 h
[1] = test system: 786-0
[2] = test system: A498
[3] = test system: A549
[4] = test system: ACHN
[5] = test system: BT-549
[6] = test system: CAKI-1
[7] = test system: CCRF-CEM
[8] = test system: COLO 205
[9] = test system: DU-145
[10] = test system: EKVX
[11] = test system: HCC 2998
[12] = test system: HCT-116
[13] = test system: HCT-15
[14] = test system: HL-60
[15] = test system: HOP-62
[16] = test system: HOP-92
[17] = test system: HT-29
[18] = test system: Hs-578T
[19] = test system: IGROV-1
[20] = test system: K562
[21] = test system: KM12
[22] = test system: LOX IMVI
[23] = test system: M14
[24] = test system: MCF7
[25] = test system: MDA-MB-231
[26] = test system: MDA-MB-435
[27] = test system: MDA-N
[28] = test system: MOLT-4
[29] = test system: Malme-3M
[30] = test system: NCI-H226
[31] = test system: NCI-H23
[32] = test system: NCI-H460
[33] = test system: NCI-H522
[34] = test system: NCI/ADR-RES
[35] = test system: OVCAR-3
[36] = test system: OVCAR-4
[37] = test system: OVCAR-5
[38] = test system: OVCAR-8
[39] = test system: PC-3
[40] = test system: RPMI-8226
[41] = test system: RXF 393
[42] = test system: SF-268
[43] = test system: SF-295
[44] = test system: SF-539
[45] = test system: SK-MEL-28
[46] = test system: SK-MEL-2
[47] = test system: SK-MEL-5
[48] = test system: SK-OV-3
[49] = test system: SN12C
[50] = test system: SNB-19
[51] = test system: SNB-75
[52] = test system: SR
[53] = test system: SW-620
[54] = test system: T47D
[55] = test system: TK-10
[56] = test system: U-251
[57] = test system: UACC-257
[58] = test system: UACC-62
[59] = test system: UO-31

`CC(C)=CC1CC(C)C2(CCC3(C)CC4C(C(=O)CC4(C)O)/C(C=O)=C\CC32)O1` (centres undefined) was tested, and the GI50 [1] was 21 nM (active), the GI50 [2] was 278 nM (active) and the GI50 [3] was 68.5 nM (active). For the same compound, the GI50 [4] was 32.4 nM (active), the GI50 [5] was 177 nM (active) and the GI50 [6] was 60.4 nM (active). For the same compound, the GI50 [7] was 17.9 nM (active), the GI50 [8] was 59.6 nM (active) and the GI50 [9] was 129 nM (active). For the same compound, the GI50 [10] was 154 nM (active), the GI50 [11] was 178 nM (active) and the GI50 [12] was 40.7 nM (active). For the same compound, the GI50 [13] was 24.3 nM, the GI50 [14] was < 17.3 nM (active) and the GI50 [15] was 126 nM (active). For the same compound, the GI50 [16] was 70.3 nM (active), the GI50 [17] was 31.2 nM (active) and the GI50 [18] was 130 nM (active). For the same compound, the GI50 [19] was 144 nM (active), the GI50 [20] was 61.4 nM (active) and the GI50 [21] was 102 nM (active). The GI50 [22] was 58.2 nM (active), the GI50 [23] was 134 nM (active) and the GI50 [24] was 67.5 nM (active). The GI50 [25] was 96.8 nM (active), the GI50 [26] was 61.7 nM (active) and the GI50 [27] was 112 nM (active). For the same compound, the GI50 [28] was < 15.3 nM (active), the GI50 [29] was 131 nM (active) and the GI50 [30] was 68.9 nM (active). For the same compound, the GI50 [31] was 75.7 nM (active), the GI50 [32] was 133 nM (active) and the GI50 [33] was 28 nM (active). The GI50 [34] was 110 nM (active), the GI50 [35] was 22.4 nM (active) and the GI50 [36] was 35.6 nM (active). The GI50 [37] was 140 nM (active), the GI50 [38] was 43.2 nM (active) and the GI50 [39] was 38 nM (active). For the same compound, the GI50 [40] was 25.5 nM (active), the GI50 [41] was 37.3 nM (active) and the GI50 [42] was 136 nM (active). The GI50 [43] was 191 nM (active), the GI50 [44] was 93.3 nM (active) and the GI50 [45] was 104 nM (active). For the same compound, the GI50 [46] was 144 nM (active), the GI50 [47] was 216 nM (active) and the GI50 [48] was 148 nM (active). The GI50 [49] was 63.8 nM (active), the GI50 [50] was 177 nM (active) and the GI50 [51] was 142 nM (active). For the same compound, the GI50 [52] was 30 nM (active), the GI50 [53] was 20.5 nM (active) and the GI50 [54] was 57.4 nM (active). The GI50 [55] was 23.5 nM (active), the GI50 [56] was 73.5 nM (active) and the GI50 [57] was 120 nM (active). For the same compound, the GI50 [58] was 169 nM (active) and the GI50 [59] was 35.5 nM (active).
